As a reminder, the pIC50 is the negative decadic logarithm of the IC50, by convention in mol/L. A high value points to a small IC50.

pIC50: −log10 of the molar value.

This note sets out measurements from patent US20260028365A1 (BIOGEN MA INC., priority 2022, published 2026).

Sequence of Tyk2 (P29597 whole entry): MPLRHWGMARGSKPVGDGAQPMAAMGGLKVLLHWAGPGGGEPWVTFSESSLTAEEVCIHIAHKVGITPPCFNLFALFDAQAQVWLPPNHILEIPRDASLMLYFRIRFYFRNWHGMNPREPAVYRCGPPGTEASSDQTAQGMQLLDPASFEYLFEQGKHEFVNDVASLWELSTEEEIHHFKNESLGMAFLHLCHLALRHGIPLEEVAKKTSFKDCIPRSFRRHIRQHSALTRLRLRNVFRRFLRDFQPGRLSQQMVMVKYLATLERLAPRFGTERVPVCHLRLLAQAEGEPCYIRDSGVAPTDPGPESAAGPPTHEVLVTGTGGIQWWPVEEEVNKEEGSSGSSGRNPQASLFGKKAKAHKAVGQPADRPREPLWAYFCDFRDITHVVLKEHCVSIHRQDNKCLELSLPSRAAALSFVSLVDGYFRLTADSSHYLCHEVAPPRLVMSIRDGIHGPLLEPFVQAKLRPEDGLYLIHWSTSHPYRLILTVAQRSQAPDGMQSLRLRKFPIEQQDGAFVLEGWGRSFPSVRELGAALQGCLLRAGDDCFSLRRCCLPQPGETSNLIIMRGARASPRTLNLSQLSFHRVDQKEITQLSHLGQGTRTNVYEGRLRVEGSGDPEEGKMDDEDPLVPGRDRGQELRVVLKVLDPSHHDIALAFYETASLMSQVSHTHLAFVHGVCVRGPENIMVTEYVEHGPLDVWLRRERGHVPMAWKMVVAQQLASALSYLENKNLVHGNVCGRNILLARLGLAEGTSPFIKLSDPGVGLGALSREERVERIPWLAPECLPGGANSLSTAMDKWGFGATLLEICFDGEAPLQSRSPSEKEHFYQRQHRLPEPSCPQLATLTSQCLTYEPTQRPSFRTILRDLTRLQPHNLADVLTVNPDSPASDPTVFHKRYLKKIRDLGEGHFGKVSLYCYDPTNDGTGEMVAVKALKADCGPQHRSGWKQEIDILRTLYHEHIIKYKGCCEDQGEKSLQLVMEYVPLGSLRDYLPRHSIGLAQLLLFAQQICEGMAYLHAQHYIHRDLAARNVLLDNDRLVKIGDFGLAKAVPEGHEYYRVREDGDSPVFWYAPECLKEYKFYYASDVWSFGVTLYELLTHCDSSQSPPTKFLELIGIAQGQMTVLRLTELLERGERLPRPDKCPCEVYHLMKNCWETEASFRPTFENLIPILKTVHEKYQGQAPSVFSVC

This assay has as its target Tyk2 (Homo sapiens (Human), UniProt P29597). Kind of assay: pSTAT4 Cell Assay (MSD, NK92 cells). In kind it is cell-based. As to conditions: MSD. Here is the method:
The inhibitory potency of compounds of the disclosure against the Tyk2 kinase activity on STAT4 was evaluated using an MSD-platform plate-based assay format. NK92 cells natively expressing STAT4 and Tyk2 were serum-starved to reduce background phosphorylation levels, then cells were treated compounds for 1 hr with a 10-point four-fold dilution series starting at 10 μM. Cells were then stimulated with 30 ng/mL […] for 15 minutes. […] The data were normalized and the percent activity versus log concentration of compound were fitted with a 4-parameter logistic model to generate to generate IC50 curves.
As for `CC(=O)Nc1cc(Nc2cc(C)nc(C(C)(F)F)n2)c(-c2ccc([C@H]3COCCN3C)cn2)cn1` (single isomer, unassigned) [Example 645, (S)-N-(4′-((2-(1,1-difluoroethyl)-6-methylpyrimidin-4-yl)amino)-5-(4-methylmorpholin-3-yl)-[2,3′-bipyridin]-6′-yl)acetamide or (R)-N-(4′-((2-(1,1-difluoroethyl)-6-methylpyrimidin-4-yl)amino)-5-(4-methylmorpholin-3-yl)-[2,3′-bipyridin]-6′-yl)acetamide], the pIC50 was not below 8.00.
In the case of `CC(=O)Nc1cc(Nc2cc(C)nc(C(C)(F)F)n2)c(-c2ccc([C@@H]3COCCN3C)cn2)cn1` (single isomer, unassigned) [Example 646, (R)-N-(4′-((2-(1,1-difluoroethyl)-6-methylpyrimidin-4-yl)amino)-5-(4-methylmorpholin-3-yl)-[2,3′-bipyridin]-6′-yl)acetamide or (S)-N-(4′-((2-(1,1-difluoroethyl)-6-methylpyrimidin-4-yl)amino)-5-(4-methylmorpholin-3-yl)-[2,3′-bipyridin]-6′-yl)acetamide] it was not below 8.00; in that of `CC(=O)Nc1cc(Nc2ccnc(C(C)(F)F)n2)c(OC(F)F)cn1` [Example 6, N-(4-((2-(1,1-difluoroethyl)pyrimidin-4-yl)amino)-5-(difluoromethoxy)pyridin-2-yl)acetamide], not above 6.00; in that of `CC(=O)Nc1cc(Nc2ccnc(C(C)(F)F)n2)c(OC2CCC2)cn1` [Example 7, N-(5-cyclobutoxy-4-((2-(1,1-difluoroethyl)pyrimidin-4-yl)amino)pyridin-2-yl)acetamide], 6.00 to 7.00.
In the case of `CC(=O)Nc1cc(Nc2cc(C)nc(C(C)(F)F)n2)c(OCC2(C)CC2)cn1` [Example 58, N-(4-((2-(1,1-difluoroethyl)-6-methylpyrimidin-4-yl)amino)-5-((1-methylcyclopropyl)methoxy)pyridin-2-yl)acetamide] it was 7.00 to 8.00.
As for `COCCOc1cnc(NC(C)=O)cc1Nc1cccc(C(F)CF)n1` (stereo not drawn) [Example 73, N-(4-((6-(1,2-difluoroethyl)pyridin-2-yl)amino)-5-(2-methoxyethoxy)pyridin-2-yl)acetamide], the pIC50 is 7.00 to 8.00.
With `CC(=O)Nc1cc(Nc2cc(C)nc(C(C)(F)F)n2)c(OCC23CC(C2)C3)cn1` [Example 100, N-(5-(bicyclo[1.1.1]pentan-1-ylmethoxy)-4-((2-(1,1-difluoroethyl)-6-methylpyrimidin-4-yl)amino)pyridin-2-yl)acetamide], the pIC50 is not below 8.00.
As to `CNC(=O)COc1cnc(NC(C)=O)cc1Nc1cc(C)nc(C(C)(F)F)n1` [Example 102, 2-((6-acetamido-4-((2-(1,1-difluoroethyl)-6-methylpyrimidin-4-yl)amino)pyridin-3-yl)oxy)-N-methylacetamide], the negative-log IC50 (pIC50) was 7.00 to 8.00.
The same measure for `CC(=O)Nc1cc(Nc2cc(C)nc(C(C)(F)F)n2)c(OCC(=O)N(C)C)cn1` [Example 103, 2-((6-acetamido-4-((2-(1,1-difluoroethyl)-6-methylpyrimidin-4-yl)amino)pyridin-3-yl)oxy)-N,N-dimethylacetamide]: 6.00 to 7.00.
The same measure for `CC(=O)Nc1cc(Nc2cc(C)nc(C(C)(F)F)n2)c(OCCC(F)F)cn1` [Example 104, N-(4-((2-(1,1-difluoroethyl)-6-methylpyrimidin-4-yl)amino)-5-(3,3-difluoropropoxy)pyridin-2-yl)acetamide]: 7.00 to 8.00; for `CCCCOc1cnc(NC(C)=O)cc1Nc1cc(C)nc(C(C)(F)F)n1` [Example 105, N-(5-butoxy-4-((2-(1,1-difluoroethyl)-6-methylpyrimidin-4-yl)amino)pyridin-2-yl)acetamide]: not below 8.00.
In the case of `CC(=O)Nc1cc(Nc2cc(C)nc(C(C)(F)F)n2)c(OCCN2CCN(C)CC2)cn1` [Example 106, N-(4-((2-(1,1-difluoroethyl)-6-methylpyrimidin-4-yl)amino)-5-(2-(4-methylpiperazin-1-yl)ethoxy)pyridin-2-yl)acetamide] it was 7.00 to 8.00; in that of `COCCCOc1cnc(NC(C)=O)cc1Nc1cc(C)nc(C(C)(F)F)n1` [Example 107, N-(4-((2-(1,1-difluoroethyl)-6-methylpyrimidin-4-yl)amino)-5-(3-methoxypropoxy)pyridin-2-yl)acetamide], 7.00 to 8.00; in that of `CC(=O)Nc1cc(Nc2cc(C)nc(C(C)(F)F)n2)c(OCc2nccs2)cn1` [Example 108, N-(4-((2-(1,1-difluoroethyl)-6-methylpyrimidin-4-yl)amino)-5-(thiazol-2-ylmethoxy)pyridin-2-yl)acetamide], 7.00 to 8.00.
Turning to `CCC1(COc2cnc(NC(C)=O)cc2Nc2cc(C)nc(C(C)(F)F)n2)COC1` [Example 109, N-(4-((2-(1,1-difluoroethyl)-6-methylpyrimidin-4-yl)amino)-5-((3-ethyloxetan-3-yl)methoxy)pyridin-2-yl)acetamide], the negative-log IC50 (pIC50) was 7.00 to 8.00.
Compound `CC(=O)Nc1cc(Nc2cc(C)nc(C(C)(F)F)n2)c(OC[C@@H]2COC(C)(C)O2)cn1` [Example 110, (R)-N-(4-((2-(1,1-difluoroethyl)-6-methylpyrimidin-4-yl)amino)-5-((2,2-dimethyl-1,3-dioxolan-4-yl)methoxy)pyridin-2-yl)acetamide] gave a pIC50 of 7.00 to 8.00.
The same measure for `CC(=O)Nc1cc(Nc2cc(C)nc(C(C)(F)F)n2)c(OCc2csnc2C)cn1` [Example 111, N-(4-((2-(1,1-difluoroethyl)-6-methylpyrimidin-4-yl)amino)-5-((3-methylisothiazol-4-yl)methoxy)pyridin-2-yl)acetamide]: 6.00 to 7.00.
The same measure for `CC(=O)Nc1cc(Nc2cc(C)nc(C(C)(F)F)n2)c(OCc2nc(C)cs2)cn1` [Example 112, N-(4-((2-(1,1-difluoroethyl)-6-methylpyrimidin-4-yl)amino)-5-((4-methylthiazol-2-yl)methoxy)pyridin-2-yl)acetamide]: 7.00 to 8.00.
The same measure for `CC(=O)Nc1cc(Nc2cc(C)nc(C(C)(F)F)n2)c(OCCOC(C)(C)C)cn1` [Example 113, N-(5-(2-(tert-butoxy)ethoxy)-4-((2-(1,1-difluoroethyl)-6-methylpyrimidin-4-yl)amino)pyridin-2-yl)acetamide]: not below 8.00; for `COc1cc(COc2cnc(NC(C)=O)cc2Nc2cc(C)nc(C(C)(F)F)n2)ccn1` [Example 114, N-(4-((2-(1,1-difluoroethyl)-6-methylpyrimidin-4-yl)amino)-5-((2-methoxypyridin-4-yl)methoxy)pyridin-2-yl)acetamide]: 7.00 to 8.00.
As for `CC(=O)Nc1cc(Nc2cc(C)nc(C(C)(F)F)n2)c(OCc2cc(C)sn2)cn1` [Example 115, N-(4-((2-(1,1-difluoroethyl)-6-methylpyrimidin-4-yl)amino)-5-((5-methylisothiazol-3-yl)methoxy)pyridin-2-yl)acetamide], the pIC50 was not below 8.00.
In the case of `CC(=O)Nc1cc(Nc2cc(C)nc(C(C)(F)F)n2)c(OCc2ccc(C)nc2)cn1` [Example 116, N-(4-((2-(1,1-difluoroethyl)-6-methylpyrimidin-4-yl)amino)-5-((6-methylpyridin-3-yl)methoxy)pyridin-2-yl)acetamide] it was 7.00 to 8.00.
In the case of `CC(=O)Nc1cc(Nc2cc(C)nc(C(C)(F)F)n2)c(OCc2csc(C)n2)cn1` [Example 117, N-(4-((2-(1,1-difluoroethyl)-6-methylpyrimidin-4-yl)amino)-5-((2-methylthiazol-4-yl)methoxy)pyridin-2-yl)acetamide] it was not below 8.00.
`CC(=O)Nc1cc(Nc2cc(C)nc(C(C)(F)F)n2)c(OCc2nnc(C)s2)cn1` [Example 118, N-(4-((2-(1,1-difluoroethyl)-6-methylpyrimidin-4-yl)amino)-5-((5-methyl-1,3,4-thiadiazol-2-yl)methoxy)pyridin-2-yl)acetamide] showed a pIC50 of 7.00 to 8.00.
Take `CC(=O)Nc1cc(Nc2cc(C)nc(C(C)(F)F)n2)c(OCc2ccnc(F)c2)cn1` [Example 120, N-(4-((2-(1,1-difluoroethyl)-6-methylpyrimidin-4-yl)amino)-5-((2-fluoropyridin-4-yl)methoxy)pyridin-2-yl)acetamide]: the pIC50 is 7.00 to 8.00.
With `CC(=O)Nc1cc(Nc2cc(C)nc(C(C)(F)F)n2)c(OCc2cc(C)no2)cn1` [Example 121, N-(4-((2-(1,1-difluoroethyl)-6-methylpyrimidin-4-yl)amino)-5-((3-methylisoxazol-5-yl)methoxy)pyridin-2-yl)acetamide], the negative logarithm of the IC50 (pIC50) is 7.00 to 8.00.
With `CC(=O)Nc1cc(Nc2cc(C)nc(C(C)(F)F)n2)c(OCc2cnco2)cn1` [Example 122, N-(4-((2-(1,1-difluoroethyl)-6-methylpyrimidin-4-yl)amino)-5-(oxazol-5-ylmethoxy)pyridin-2-yl)acetamide], the negative logarithm of the IC50 (pIC50) is not below 8.00.
Take `CC(=O)Nc1cc(Nc2cc(C)nc(C(C)(F)F)n2)c(OCc2cc(C)cc(C)n2)cn1` [Example 123, N-(4-((2-(1,1-difluoroethyl)-6-methylpyrimidin-4-yl)amino)-5-((4,6-dimethylpyridin-2-yl)methoxy)pyridin-2-yl)acetamide]: the pIC50 is 7.00 to 8.00.
The same measure for `CC(=O)Nc1cc(Nc2cc(C)nc(C(C)(F)F)n2)c(OC[C@H]2COC(C)(C)O2)cn1` [Example 124, (S)-N-(4-((2-(1,1-difluoroethyl)-6-methylpyrimidin-4-yl)amino)-5-((2,2-dimethyl-1,3-dioxolan-4-yl)methoxy)pyridin-2-yl)acetamide]: not below 8.00; for `CC(=O)Nc1cc(Nc2cc(C)nc(C(C)(F)F)n2)c(OCc2cnccn2)cn1` [Example 126, N-(4-((2-(1,1-difluoroethyl)-6-methylpyrimidin-4-yl)amino)-5-(pyrazin-2-ylmethoxy)pyridin-2-yl)acetamide]: 7.00 to 8.00.
